Consider 1 compound from publication PMC12257510, “Structure-Guided Design of a KMT9 Inhibitor Prodrug with Cellular Activity” (Journal of Medicinal Chemistry, 2025).

Where only a bound is given, the exact number is not on record here.

A word on the ΔTm: it is the change in melting temperature against a reference sample. Broadly, the Kd is a measure of binding affinity in units of concentration.

One series addresses T1, KMT5A (Homo sapiens, UniProt Q9NQR1).
T1 sequence (Q9NQR1 1-393): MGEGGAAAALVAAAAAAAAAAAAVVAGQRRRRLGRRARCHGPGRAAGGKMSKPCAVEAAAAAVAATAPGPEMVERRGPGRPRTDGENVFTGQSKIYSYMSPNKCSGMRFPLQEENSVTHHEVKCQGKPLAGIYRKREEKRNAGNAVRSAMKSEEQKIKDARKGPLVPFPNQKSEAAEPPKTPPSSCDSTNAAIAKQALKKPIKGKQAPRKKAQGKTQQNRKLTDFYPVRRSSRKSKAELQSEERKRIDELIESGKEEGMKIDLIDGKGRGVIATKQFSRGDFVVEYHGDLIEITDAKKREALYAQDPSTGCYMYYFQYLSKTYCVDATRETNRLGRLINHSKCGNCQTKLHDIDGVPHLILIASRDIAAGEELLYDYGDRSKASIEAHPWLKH
Description: CETSA in intact SW480 cells, KMT5A. In kind it is cell-based. Details: endogenous in cells; host or cells: SW480. As for the experimental part:
(§1) For whole cell CETSA, the cells were incubated with 10/15 μM of compound 7b/8/8-N for 18 h. Then, cells were washed with cell culture medium, detached from the surface using trypsin, washed with PBS and the number of cells was determined. Cell concentration was adjusted to 3.6 × 10^7 cells/mL using in PBS with Complete (w/o EDTA, Roche) protease inhibitor. Then, cells were frozen in liquid nitrogen and thawed at 25 °C three times, before being divided in 16 aliquots. Each aliquot was heated to a defined temperature between 40 and 70 °C in a PCR cycler (16 well gradient, 55 °C ± 15). After 3 min incubation, aliquots were snap frozen in liquid nitrogen and thawed at 25 °C. Cell lysates were then centrifuged at 20,000 × g , 4 °C for 20 min. Supernatant were mixed with 5× loading buffer, heated to 70 °C for 5 min and analyzed by Western blotting essentially as previously described. For the CETSA performed with cell lysates, cells were directly harvested and lysed as described above. […]
(§2) Figure S4. […] Representative Western blots (A) and quantification (B) showing no obvious shifting melting temperatures (ΔT m) of endogenous KMT5A upon treatment with compound 7b compared to DMSO. […]
(§3) Representative Western blots (C) and quantification (D) showing no shifting melting temperatures (ΔT m) of endogenous KMT5A upon treatment with compound 8 compared to DMSO. […]

A further series concerns HepG2 cells. Description: Cell proliferation assay, HepG2. To be noted: vs DMSO. In kind it is cell-based, human.
A further series concerns the target T2, KMT9 (Homo sapiens, UniProt Q9Y5N5).
T2 sequence (Q9Y5N5 1-214): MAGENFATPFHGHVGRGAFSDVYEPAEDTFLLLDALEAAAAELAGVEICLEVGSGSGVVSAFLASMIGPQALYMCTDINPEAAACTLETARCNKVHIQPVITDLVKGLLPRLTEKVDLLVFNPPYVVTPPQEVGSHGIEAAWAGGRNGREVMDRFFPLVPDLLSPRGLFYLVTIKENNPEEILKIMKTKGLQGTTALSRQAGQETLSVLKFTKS
T2 sequence (Q9UI30 1-125 partner): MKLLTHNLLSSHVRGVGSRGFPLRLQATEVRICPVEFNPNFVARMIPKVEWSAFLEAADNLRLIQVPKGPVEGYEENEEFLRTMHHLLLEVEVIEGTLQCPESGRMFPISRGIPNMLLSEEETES
Description: Microscale thermophoresis (MST) binding assay. As for the experimental part: To determine the binding affinity of the compound and KMT9, microscale thermophoresis (MST) analysis was performed with a NanoTemper Monolith NT.115 instrument (NanoTemper Technologies GmbH). KMT9 was labeled with a RED-Tris-NTA labeling kit (NanoTemper Technologies GmbH) based on the manufacturer’s instructions. Buffer including 25 mM HEPES (pH 7.5), 100 mM NaCl, 1 mM DTT and 0.05% Tween was used for the reaction buffer. Varying concentrations of compounds were titrated against His-tag labeled KMT9 proteins (20 nM). Samples were loaded into standard Capillaries (NanoTemper Technologies GmbH) and MST measurements were performed using 40% MST power and 100% LED power. For each set of binding experiments, MST measurement was carried out with Binding Affinity module in MO. Control program under Nano-RED excitation. Data sets were processed with the MO.Affinity Analysis software (NanoTemper Technologies GmbH).

The next series deals with T3, endogenous KMT9a (Homo sapiens, UniProt Q9Y5N5).
T3 construct: increased thermal stability of endogenous KMT9 in SW480 cell lysates; endogenous in cells; host or cells: SW480
T3 sequence (Q9Y5N5 1-214): T2 sequence (Q9Y5N5 1-214)
T3 sequence (Q9UI30 1-125 partner): T2 sequence (Q9UI30 1-125 partner)
Description: CETSA in intact SW480 cells, KMT9. To be noted: 18 h, vs DMSO. In kind it is cell-based. As for the experimental part:
For whole cell CETSA, the cells were incubated with 10/15 μM of compound 7b/8/8-N for 18 h. Then, cells were washed with cell culture medium, detached from the surface using trypsin, washed with PBS and the number of cells was determined. Cell concentration was adjusted to 3.6 × 10^7 cells/mL using in PBS with Complete (w/o EDTA, Roche) protease inhibitor. Then, cells were frozen in liquid nitrogen and thawed at 25 °C three times, before being divided in 16 aliquots. Each aliquot was heated to a defined temperature between 40 and 70 °C in a PCR cycler (16 well gradient, 55 °C ± 15). After 3 min incubation, aliquots were snap frozen in liquid nitrogen and thawed at 25 °C. Cell lysates were then centrifuged at 20,000 × g , 4 °C for 20 min. Supernatant were mixed with 5× loading buffer, heated to 70 °C for 5 min and analyzed by Western blotting essentially as previously described. For the CETSA performed with cell lysates, cells were directly harvested and lysed as described above. The lysates were then split and incubated either with DMSO or 10 μM compound 7b for 2 h. Then, lysates were aliquoted again into 16 samples each and treated as described for the whole cell CETSA.

The next series relates to Caco-2 cells. Description: Cell proliferation assay (X-Celligence), Caco-2. In kind it is cell-based. The conditions noted are these: Xcelligence, vs DMSO. As for the experimental part:
Cell proliferation was determined using the X-Celligence RTCA system (Roche). For real-time recording of SW480, Caco-2 cell proliferation, 5000 cells/well were seeded in 16 well E-plates (Roche). […] Cell indices were automatically recorded every 15 min. Relative velocities represent the change of the cell index over time. The sequences of the siRNAs (Stealth RNAi siRNAs; Life Technologies) used in the experiments have been previously described.

Another series deals with T4, KMT9a (Homo sapiens, UniProt Q9Y5N5).
T4 sequence (Q9Y5N5 1-214): T2 sequence (Q9Y5N5 1-214)
T4 sequence (Q9UI30 1-125 partner): T2 sequence (Q9UI30 1-125 partner)
Description: CETSA in Caco-2 cells, KMT9. In kind it is cell-based. Also noted: of endogenous KMT9 upon treatment with; endogenous in cells; host or cells: Caco-2. As for the experimental part: as §1, §2, §3

Take `CCOC(=O)[C@@H](N)CCN(CCCNCCc1ccc(Oc2ccc(Cl)cc2)c(F)c1)C[C@H]1C[C@@H](n2ccc3c(NC)ncnc32)[C@H](O)[C@@H]1O` [compound 8, Ethyl (S)-2-amino-4-((3-((4-(4-chlorophenoxy)-3-fluorophenethyl)amino)propyl) (((1R,2R,3S,4R)-2,3-dihydroxy-4-(4-(methylamino)-7H-pyrrolo[2,3-d]pyrimidin-7-yl)cyclopentyl)methyl)amino)butanoate]: the thermal shift (ΔTm) at 10 µM was -0.6 °C at KMT5A and 5 °C at endogenous KMT9a. The “Proliferation of HepG2 cells” value with HepG2 cells is reported as “did not affect cell proliferation”. For the same compound, the “Decrease of binding affinity compared to compound 7b” value on KMT9 (Kd ratio vs compound 7b) was “more than 10,000 fold”. Further, on KMT9 (MST, binding to KMT9, read-out: Kd), the dissociation constant Kd was greater than 400 µM. In the series on Caco-2 cells, the “Proliferation of Caco-2 cells” value is given as “strongly suppressed proliferation”. Also, on KMT9a, the thermal shift (ΔTm) at 15 µM amounted to 6.1 °C.
